This passage reports IC50 results from patent US20250034151A1, “WEE1 INHIBITOR, PREPARATION THEREFOR, AND USE THEREOF” (JIANGSU TASLY DIYI PHARMACEUTICAL CO., LTD., priority 2022, published 2025).

Bounds are passed on as bounds.

For one test, the target named is T1, Wee1 protein (Homo sapiens, UniProt P30291).
T1 construct: purchased Thermo Fisher PR7373A
In words: Binding of compound to Wee1 protein and Tracer 178 by TR-FRET (Wee1 kinase inhibitory activity). Particulars: 15 nM WEE1, 50 nM Tracer 178, read-out: IC50 (inhibitory activity against Wee1 kinase). How it is done: First, solutions of the compounds in different concentration gradients were prepared. The compounds were dissolved in DMSO and the compounds were diluted 4 folds with a total of 10 dose points and 2 parallel replicates for each concentration.
The IC50 for inhibition of enzyme activity by the compounds was then calculated using GraphPad Prism 6 and fitted with a log (inhibitor) vs. response-Variable slope mode. The fitting equation was: Y=Bottom+(Top−Bottom)/(1+10^((Log IC50−X)*HillSlope)), wherein Y represents the percentage of residual enzyme activity known and X represents the known concentration of compound after the logarithm.

A further test concerns H1299 cells. In words: Anti-proliferative effect on H1299 cells by Cell Titer-Glo. The test is classed as cell-based. Particulars: Homo sapiens, NCI-H1299, 72 h, 3 days, read-out: H1299 (IC50, inhibition of proliferation in vitro). How it is done:
(§1) Test Example 2: Evaluation of Cell Proliferation Inhibitory Activity
1. Evaluation of the Anti-Proliferative Effect of Compounds on H1299 Cells by the Cell Titer-Glo Method
(§2) Compound solutions of different concentration gradients were prepared. […] The cell growth group without compound was used as a positive control (maximum signal control) and the medium was used as a negative control (minimum signal control), while ensuring that the final level of DMSO in each reaction well was 0.2%. After removing the medium from the 384-well plate, 25 ul of the configured compound at different concentrations was transferred into the well plate and the compound and cells were incubated in the cell incubator at 37° C. with 5% CO2 for 3 days.
The 384-well plates were removed from the cell incubator and allowed to equilibrate for 1h to room temperature. 25 ul of Cell Titer-Glo assay was added to each well, lysed on a shaker for 2 min and then read out (Luminescence) using a BMG PHERAStar after 10 min incubation. Calculate the inhibition rate from the luminescence signal: first calculate the average of the positive control (maximum signal control) and the negative control (minimum signal control).
was used to calculate the rate of inhibition of the cells by different concentrations of the compounds. The IC50 of the compound on cell activity inhibition was calculated by fitting a log(inhibitor) vs. response-Variable slope model to GraphPad Prism 6. The fitted equation was: Y=Bottom+(Top−Bottom)/(1+10^((Log IC50−X)*HillSlope)), where Y represents the rate of inhibition and X represents the concentration of the known compound after Log.
(§3) The results of the in vitro anti-cell proliferation assays of H1299 and MIA Paca-2 for the example compounds according to the method described above are shown in Table 2, wherein the IC50 of each compound was determined and classified according to the description as follows: […]
(ATP-based viability assays read luminescence as a measure of living cells.)

Another test concerns MIA PaCa2 cells. The experiment in a line: Anti-proliferative effect on MIA PaCa2 cells by Cell Titer-Glo. The test is classed as cell-based. Particulars: Homo sapiens, MIA PaCa-2, 72 h, 3 days, read-out: MIA PaCa 2 (IC50, inhibition of proliferation in vitro). Here is the method: as §1
2. Evaluation of the Anti-Proliferative Effect of Compounds on MIA PaCa2 Cells by the Cell Titer-Glo Method
as §2
The 384-well plates were removed from the cell incubator and allowed to equilibrate for 1 h to room temperature. 25 ul of Cell Titer-Glo assay was added to each well, lysed on a shaker for 2 min and then read out (Luminescence) using a BMG PHERAStar after 10 min incubation. Calculate the inhibition rate from the luminescence signal: first calculate the average of the positive control (maximum signal control) and the negative control (minimum signal control).
was used to calculate the rate of inhibition of the cells by different concentrations of the compounds. The IC50 of the compound on cell activity inhibition was calculated by fitting a log(inhibitor) vs. response-Variable slope model to GraphPad Prism 6. The fitted equation was: Y=Bottom+(Top-Bottom)/(1+10^((Log IC50−X)*HillSlope)), wherein Y represents the rate of inhibition and X represents the concentration of the known compound after Log.
as §3

T1 sequence (P30291 whole entry): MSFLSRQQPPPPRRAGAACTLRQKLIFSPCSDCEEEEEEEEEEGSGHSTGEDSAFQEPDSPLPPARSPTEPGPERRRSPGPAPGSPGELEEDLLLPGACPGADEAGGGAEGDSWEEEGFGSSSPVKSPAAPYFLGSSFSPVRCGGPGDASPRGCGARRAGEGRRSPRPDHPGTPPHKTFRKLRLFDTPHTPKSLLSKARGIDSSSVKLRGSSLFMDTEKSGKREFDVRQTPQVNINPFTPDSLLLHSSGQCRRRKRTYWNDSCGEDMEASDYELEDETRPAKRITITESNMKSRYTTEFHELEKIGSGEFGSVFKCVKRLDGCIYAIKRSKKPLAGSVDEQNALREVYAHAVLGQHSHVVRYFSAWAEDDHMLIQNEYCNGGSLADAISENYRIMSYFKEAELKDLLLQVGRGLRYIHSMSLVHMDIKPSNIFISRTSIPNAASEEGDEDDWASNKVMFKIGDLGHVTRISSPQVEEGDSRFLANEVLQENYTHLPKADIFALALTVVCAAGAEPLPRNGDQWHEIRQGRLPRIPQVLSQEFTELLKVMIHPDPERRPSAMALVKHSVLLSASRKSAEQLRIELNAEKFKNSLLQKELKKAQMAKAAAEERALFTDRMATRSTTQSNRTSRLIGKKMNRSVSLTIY

For the compound `C=CCn1c(=O)c2cnc(Nc3ccc(N4CCN(C)CC4)cc3)nc2n1-c1cccc(C2(S(C)(=O)=O)CC2)n1` [Compound 1], the IC50 at Wee1 protein is 5 to 10 nM; in the test with H1299 cells, 2000 to 5000 nM.
For `C=CCn1c(=O)c2cnc(Nc3ccc(N4C[C@@H]5C[C@H]4CN5C)cc3)nc2n1-c1cccc(N=S(C)(C)=O)n1` [Compound 5], in that order: < 5 nM and 100 to 1000 nM.
For `C=CCn1c(=O)c2cnc(Nc3ccc(OC4CN5CCC4CC5)cc3)nc2n1-c1cccc(N=S(C)(C)=O)n1` (centres unmarked) [Compound 7], in that order: < 5 nM and 100 to 1000 nM.
Regarding `C=CCn1c(=O)c2cnc(Nc3ccc(N(CC)CC(=O)NC)cc3)nc2n1-c1cccc(C(C)(C)O)n1` [Compound 13], the results for the IC50 in the test with MIA PaCa2 cells, at Wee1 protein and in the test on H1299 cells were 5000 to 10000 nM, 5 to 10 nM and 5000 to 10000 nM, respectively.
Consider `C=CCn1c(=O)c2cnc(Nc3ccc(N(CC)CC(=O)N4CCN(C)CC4)cc3)nc2n1-c1cccc(C(C)(C)O)n1` [Compound 14], for which the IC50 is 2000 to 5000 nM in the test on MIA PaCa2 cells, 5 to 10 nM on Wee1 protein and 5000 to 10000 nM in the test on H1299 cells.
Taken in the same sequence, the figures for `C=CCn1c(=O)c2cnc(Nc3ccc(-c4cc(=O)[nH]c5c4N4CCC5CC4)cc3)nc2n1-c1cccc(C(C)(C)O)n1` [Compound 16] were > 10000 nM, 10 to 100 nM and > 10000 nM.
For `C=CCn1c(=O)c2cnc(Nc3ccc(N4CC5CCC(C4)O5)cc3)nc2n1-c1cccc(C(C)(C)O)n1` [Compound 17], in that order: 1000 to 2000 nM, 5 to 10 nM and 100 to 1000 nM.
Taken in the same sequence, the figures for `C=CCn1c(=O)c2cnc(Nc3ccc(N4C[C@H]5C[C@@H]4CO5)cc3)nc2n1-c1cccc(C(C)(C)O)n1` [Compound 20] were 1000 to 2000 nM, 5 to 10 nM and 100 to 1000 nM.
In the case of `C=CCn1c(=O)c2cnc(Nc3ccc(N4CC5CC4CN5C4CCN(C)CC4)c(C)c3)nc2n1-c1cccc(C(C)(C)O)n1` (centres unmarked) [Compound 21], the values for the IC50 with MIA PaCa2 cells, on Wee1 protein and in the test with H1299 cells were 100 to 1000 nM, 10 to 100 nM and 1000 to 2000 nM, respectively.
Consider `C=CCn1c(=O)c2cnc(Nc3ccc(N4CC5CC(CN(Cc6ccccc6)C5)C4)cc3)nc2n1-c1cccc(C(C)(C)O)n1` [Compound 22], for which the IC50 in the test with MIA PaCa2 cells was in the range of 1000 to 2000 nM; on Wee1 protein, 10 to 100 nM; in the test on H1299 cells, 100 to 1000 nM.
For `C=CCn1c(=O)c2cnc(Nc3ccc(N(C)[C@H]4CN5CCC4CC5)cc3)nc2n1-c1cccc(C(C)(C)O)n1` [Compound 29], in that order: > 10000 nM, 5 to 10 nM and > 10000 nM.
For `C=CCn1c(=O)c2cnc(Nc3ccc(N4C[C@@H]5C[C@H]4CN5CC(F)(F)F)cc3)nc2n1-c1cccc(C(C)(C)O)n1` [Compound 30], in that order: 1000 to 2000 nM, < 5 nM and 1000 to 2000 nM.
For `C=CCn1c(=O)c2cnc(Nc3ccc(N4CCOc5ccccc54)cc3)nc2n1-c1cccc(C(C)(C)O)n1` [Compound 31], in that order: 5000 to 10000 nM, 10 to 100 nM and 5000 to 10000 nM.
`C=CCn1c(=O)c2cnc(Nc3ccc(C4CC45C(=O)C4CCN5CC4)cc3)nc2n1-c1cccc(C(C)(C)O)n1` (centres unmarked) [Compound 32]: the IC50 in the test with MIA PaCa2 cells is 2000 to 5000 nM; on Wee1 protein, 10 to 100 nM; with H1299 cells, 2000 to 5000 nM.
Regarding `C=CCn1c(=O)c2cnc(Nc3ccc(N4CC5CC(CN(CCOC)C5)C4)cc3)nc2n1-c1cccc(C(C)(C)O)n1` [Compound 34], the IC50 lay within 2000 to 5000 nM with MIA PaCa2 cells, 10 to 100 nM on Wee1 protein and 5000 to 10000 nM with H1299 cells.
Taken in the same sequence, the figures for `C=CCn1c(=O)c2cnc(Nc3ccc(C4(O)CCN(C)CC4)cc3)nc2n1-c1cccc(C(C)(C)O)n1` [Compound 35] were 1000 to 2000 nM, 10 to 100 nM and 2000 to 5000 nM.
In the case of `C=CCn1c(=O)c2cnc(Nc3ccc(-n4cc(N(C)C)cn4)cc3)nc2n1-c1cccc(C(C)(C)O)n1` [Compound 36], the IC50 in the test with MIA PaCa2 cells is 1000 to 2000 nM; on Wee1 protein it was 10 to 100 nM; in the test on H1299 cells it was 1000 to 2000 nM.
As to `C=CCn1c(=O)c2cnc(Nc3ccc(N4C[C@@H]5C[C@H]4CN5CCO)cc3)nc2n1-c1cccc(C(C)(C)O)n1` [Compound 38], the IC50 was in the range of 100 to 1000 nM in the test with MIA PaCa2 cells, 10 to 100 nM at Wee1 protein and 2000 to 5000 nM in the test with H1299 cells.
As for `C=CCn1c(=O)c2cnc(Nc3ccc(N4C[C@@H]5C[C@H]4CN5C(C)C)cc3)nc2n1-c1cccc(C(C)(C)O)n1` [Compound 41], the IC50 with MIA PaCa2 cells is 100 to 1000 nM; at Wee1 protein, 10 to 100 nM; in the test with H1299 cells, 100 to 1000 nM.
For `C=CCn1c(=O)c2cnc(Nc3ccc(N4[C@@H]5C[C@H]4CN(C)C5)cc3)nc2n1-c1cccc(C(C)(C)O)n1` [Compound 43], the IC50 was 2000 to 5000 nM with MIA PaCa2 cells, 10 to 100 nM on Wee1 protein and 2000 to 5000 nM in the test with H1299 cells.
`C=CCn1c(=O)c2cnc(Nc3ccc(N4C[C@@H]5C[C@H]4CN5CCF)cc3)nc2n1-c1cccc(C(C)(C)O)n1` [Compound 44]: the IC50 in the test on MIA PaCa2 cells was in the range of 100 to 1000 nM; at Wee1 protein, 5 to 10 nM; in the test with H1299 cells it was 100 to 1000 nM.
For the compound `C=CCn1c(=O)c2cnc(Nc3cnn(-c4ccc(N(C)C)cc4)c3)nc2n1-c1cccc(C(C)(C)O)n1` [Compound 45], the results for the IC50 in the test on MIA PaCa2 cells, at Wee1 protein and in the test on H1299 cells were 5000 to 10000 nM, 10 to 100 nM and > 10000 nM, respectively.
Turning to `C=CCn1c(=O)c2cnc(Nc3ccc(C4CC45C(=O)C4CCN5CC4)cc3)nc2n1-c1cccc(N=S(C)(C)=O)n1` (centres unmarked) [Compound 47], the IC50 in the test with MIA PaCa2 cells is 100 to 1000 nM; on Wee1 protein, < 5 nM; in the test on H1299 cells it was 100 to 1000 nM.
Take `C=CCn1c(=O)c2cnc(Nc3ccc([C@H]4C[C@@]45C(=O)C4CCN5CC4)cc3)nc2n1-c1cccc(N=S(C)(C)=O)n1` [Compound 47a]: the IC50 lay within 1000 to 2000 nM in the test with MIA PaCa2 cells, 10 to 100 nM on Wee1 protein and 100 to 1000 nM in the test with H1299 cells.
Taken in the same sequence, the figures for `C=CCn1c(=O)c2cnc(Nc3ccc([C@@H]4C[C@]45C(=O)C4CCN5CC4)cc3)nc2n1-c1cccc(N=S(C)(C)=O)n1` [Compound 47b] were 2000 to 5000 nM, 10 to 100 nM and 2000 to 5000 nM.
As for `C=CCn1c(=O)c2cnc(Nc3ccc(N4CCN(C)c5ccccc54)cc3)nc2n1-c1cccc(C(C)(C)O)n1` [Compound 50], the IC50 in the test with MIA PaCa2 cells was > 10000 nM; at Wee1 protein, 100 to 1000 nM; in the test with H1299 cells, 5000 to 10000 nM.
In the case of `C=CCn1c(=O)c2cnc(Nc3ccc(N4CC5CC(C4)N5C(=O)OC)cc3)nc2n1-c1cccc(C(C)(C)O)n1` [Compound 69], the IC50 on Wee1 protein lay within 10 to 100 nM; in the test with H1299 cells it was 100 to 1000 nM.
Taken in the same sequence, the figures for `C=CCn1c(=O)c2cnc(Nc3ccc(N4CCN(C)CC4)cc3)nc2n1-c1ccc2c(C(C)=O)cn(CC)c2n1` [Compound 70] were 5 to 10 nM and 100 to 1000 nM.
For `C=CCn1c(=O)c2cnc(Nc3ccc(N4CCN(C)CC4)cc3)nc2n1-c1ccc2c(n1)N(CC)C(=O)C2(C)C` [Compound 71], in that order: 10 to 100 nM and 2000 to 5000 nM.
In the case of `C=CCn1c(=O)c2cnc(Nc3ccc(N4CCN(C)CC4)cc3)nc2n1-c1cc2ccccc2s1` [Compound 72], the IC50 is 10 to 100 nM at Wee1 protein and 5000 to 10000 nM with H1299 cells.
Taken in the same sequence, the figures for `C=CCn1c(=O)c2cnc(Nc3ccc(N4CCN(C)CC4)cc3)nc2n1-c1ccc2c(F)cn(CC)c2n1` [Compound 73] were 10 to 100 nM and 1000 to 2000 nM.
For the compound `C=CCn1c(=O)c2cnc(Nc3ccc(N4CCN(C)CC4)cc3)nc2n1-c1ccc2nc(C)n(CC)c2n1` [Compound 75], the IC50 at Wee1 protein is 10 to 100 nM; with H1299 cells, 1000 to 2000 nM.
Taken in the same sequence, the figures for `C=CCn1c(=O)c2cnc(Nc3cc(F)c(N4CC5CC(C4)N5C)c(F)c3)nc2n1-c1cccc(C(C)(C)O)n1` [Compound 79] were 10 to 100 nM and > 10000 nM.
